Measurements taken from patent US8916584B2 (Vanderbilt University, priority 2010, dated 2014).

The molecules below were run against T1, mGluR4 (Homo sapiens, UniProt Q14833) (assay: mGluR4 potentiation assay (fluorometric plate reader, compound then EC20 agonist); species for the tabulated values not stated). Settings: EC50 for potentiation of mGluR4; EC20 concentration of agonist.
T1 construct: expressed in transfected cells; host or cells: CHO cells (human mGluR4) or HEK cells (rat mGluR4 with GIRK)
T1 sequence (Q14833 33-912): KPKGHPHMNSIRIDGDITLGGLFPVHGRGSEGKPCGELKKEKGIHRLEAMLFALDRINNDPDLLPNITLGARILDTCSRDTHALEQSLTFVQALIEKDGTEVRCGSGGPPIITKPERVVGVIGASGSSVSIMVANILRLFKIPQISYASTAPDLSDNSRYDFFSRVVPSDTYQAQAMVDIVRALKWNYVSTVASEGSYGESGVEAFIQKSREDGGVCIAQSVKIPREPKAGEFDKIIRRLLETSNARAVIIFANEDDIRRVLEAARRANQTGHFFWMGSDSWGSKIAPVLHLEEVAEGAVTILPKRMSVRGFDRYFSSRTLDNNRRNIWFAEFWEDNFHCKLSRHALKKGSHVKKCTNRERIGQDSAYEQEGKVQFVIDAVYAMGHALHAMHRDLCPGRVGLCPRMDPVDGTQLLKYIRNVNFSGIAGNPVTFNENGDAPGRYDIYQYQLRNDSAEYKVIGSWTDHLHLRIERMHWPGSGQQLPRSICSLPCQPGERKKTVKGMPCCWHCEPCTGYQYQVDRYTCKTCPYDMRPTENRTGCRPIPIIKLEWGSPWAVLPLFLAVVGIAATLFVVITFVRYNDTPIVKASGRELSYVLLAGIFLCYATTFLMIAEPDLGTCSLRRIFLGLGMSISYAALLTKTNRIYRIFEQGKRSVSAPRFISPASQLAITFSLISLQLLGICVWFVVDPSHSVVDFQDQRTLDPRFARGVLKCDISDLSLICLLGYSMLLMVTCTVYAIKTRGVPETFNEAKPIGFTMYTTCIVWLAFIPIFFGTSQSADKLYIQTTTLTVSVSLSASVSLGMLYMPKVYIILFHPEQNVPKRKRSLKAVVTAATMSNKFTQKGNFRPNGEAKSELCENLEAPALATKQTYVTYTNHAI
Format: cell-based
Procedure: The disclosed compounds and compositions can be evaluated for their ability to act as a potentiator of metabotropic glutamate receptor activity, in particular mGluR4 activity, by any suitable known methodology known in the art. For example, Chinese Hamster Ovary (CHO) cells transfected with human mGluR4 or HEK cells co-transfected with rat mGluR4 and the G-protein regulated Inwardly Rectifying Potassium channel (GIRK) were plated in clear bottom assay plates for assay in a Hamamatsu FDSS Fluorometric Plate Reader. The cells were loaded with either a Ca2+-sensitive fluorescent dye or the thallium responsive dye and the plates were washed and placed into a suitable kinetic plate reader. For human mGluR4 assays, a fluorescence baseline was established for 3-5 seconds, the disclosed compounds were then added to the cells, and the response in cells was measured. Approximately two and a half minutes later, a concentration of mGluR4 orthosteric agonist (e.g. glutamate or L-AP4) eliciting approximately 20% (EC20) of the maximal agonist response was added to the cells, and the response was measured. Two minutes later, a concentration of mGluR4 agonist (e.g. glutamate or L-AP4) eliciting 80% (EC80) of the maximal agonist response was added to the cells, and the response was measured. For rat mGluR4/GIRK experiments, a baseline was established for approximately five seconds, disclosed compounds were added, and either an EC20 or EC80 concentration of agonist was added approximately two and one half minutes later. Potentiation of the agonist response of mGluR4 by the disclosed compounds was observed as an increase in response to the EC20 concentration of agonist in the presence of compound compared to the response to agonist in the absence of compound. Similarly, antagonism of the agonist response of mGluR4 by the disclosed compounds was observed as a decrease in response to the EC80 concentration of agonist in the presence of compound compared to the response to agonist in the absence of compound.
The above described assay operated in two modes. In the first mode, a range of concentrations of the disclosed compounds are added to cells, followed by a single fixed concentration of agonist. If the compound acts as a potentiatior, an EC50 value for potentiation and a maximum extent of potentiation by the compound at this concentration of agonist is determined by non-linear curve fitting. If the compound acts as a noncompetitive antagonist, an IC50 value is determined by non-linear curve fitting. In the second mode, several fixed concentrations of the disclosed compounds are added to various wells on a plate, followed by a range in concentrations of agonist for each concentration of disclosed compound. The EC50 values for the agonist at each concentration of compound are determined by non-linear curve fitting. A decrease in the EC50 value of the agonist with increasing concentrations of the sample compound (a leftward shift of the agonist concentration-response curve) is an indication of the degree of mGluR4 potentiation at a given concentration of the sample compound. A decrease in the maximal response of the agonist with increasing concentrations of the sample compounds, with or without a rightward shift in agonist potency, is an indication of the degree of noncompetitive antagonism at mGluR4. The second mode also indicates whether the sample compounds also affect the maximum response to mGluR4 to agonists.

Row | Structure (SMILES) | EC50
1 | Clc1cccc(Nc2noc3cccnc23)c1 [Example 1, N-(3-chlorophenyl)isoxazolo[4,5-b]pyridin-3-amine] | 209 nM
2 | FC(F)Oc1cccc(Nc2noc3cccnc23)c1 [Example 2, N-(3-(difluoromethoxy)phenyl)isoxazolo[4,5-b]pyridin-3-amine] | 364 nM
3 | Fc1ccc(Nc2noc3cccnc23)cc1Cl [Example 3, N-(3-chloro-4-fluorophenyl)isoxazolo[4,5-b]pyridin-3-amine] | 893 nM
4 | Clc1ccc(Nc2noc3cccnc23)cc1Cl [Example 4, N-(3,4-dichlorophenyl)isoxazolo[4,5-b]pyridin-3-amine] | 4610 nM
5 | COc1ccc(Nc2noc3cccnc23)cc1Cl [Example 5, N-(3-chloro-4-methoxyphenyl)isoxazolo[4,5-b]pyridin-3-amine] | 78.8 nM
6 | FC(F)(F)c1cccc(Nc2noc3cccnc23)c1 [Example 6, N-(3-(trifluoromethyl)phenyl)isoxazolo[4,5-b]pyridin-3-amine] | 434 nM
7 | COc1cc(Nc2noc3cccnc23)ccc1Cl [Example 7, N-(4-chloro-3-methoxyphenyl)isoxazolo[4,5-b]pyridin-3-amine] | 2100 nM
8 | COc1ccc(Nc2noc3cccnc23)cc1OC [Example 8, N-(3,4-dimethoxyphenyl)isoxazolo[4,5-b]pyridin-3-amine] | 4340 nM
9 | Fc1cccc(Nc2noc3cccnc23)c1 [Example 9, N-(3-fluorophenyl)isoxazolo[4,5-b]pyridine-3-amine] | 651 nM

Same assay, conditions: EC50 for potentiation of mGluR4; unit inferred, exponent notation

Row | Structure (SMILES) | EC50
10 | O=S(=O)(Cc1ccccc1Cl)n1ccc(Nc2noc3cccnc23)c1 [Example 16, N-(1-((2-chlorobenzyl)sulfonyl)-1H-pyrrol-3-yl)isoxazolo[4,5-b]pyridin-3-amine] | 89.2 nM
11 | c1ccc(Nc2noc3cccnc23)cc1 [Example 17, N-phenylisoxazolo[4,5-b]pyridin-3-amine] | 2030 nM
12 | FC(F)(F)Oc1cccc(Nc2noc3cccnc23)c1 [Example 18, N-(3-(trifluoromethoxy)phenyl)isoxazolo[4,5-b]pyridin-3-amine] | 1170 nM
13 | c1cnc2c(Nc3ccc4c(c3)OCO4)noc2c1 [Example 19, N-(benzo[d][1,3]dioxol-5-yl)isoxazolo[4,5-b]pyridin-3-amine] | 1000 nM
14 | Cc1cc(Nc2noc3cccnc23)ccc1Cl [Example 20, N-(4-chloro-3-methylphenyl)isoxazolo[4,5-b]pyridin-3-amine] | 590 nM
15 | CC(=O)c1cccc(Nc2noc3cccnc23)c1 [Example 22, l-(3-(isoxazolo[4,5-b]pyridin-3-ylamino)phenyl)ethanone] | 3660 nM
16 | Fc1ccc(Nc2noc3cccnc23)cc1F [Example 23, N-(3,4-difluorophenyl)isoxazolo[4,5-b]pyridin-3-amine] | 338 nM
17 | COc1cc(Nc2noc3cccnc23)ccc1F [Example 24, N-(4-fluoro-3-methoxyphenyl)isoxazolo[4,5-b]pyridin-3-amine] | 468 nM
18 | FC(F)C(F)(F)Oc1cccc(Nc2noc3cccnc23)c1 [Example 26] | 4040 nM
19 | Fc1ccc2onc(Nc3cccc(Cl)c3)c2n1 [Example 27, N-(3-chlorophenyl)-5-fluoroisoxazolo[4,5-b]pyridin-3-amine] | 153 nM
20 | Clc1cccc(Nc2noc3ccccc23)c1 [Example 30, N-(3-chlorophenyl)benzo[d]isoxazol-3-amine] | 1140 nM
21 | Fc1cccc(Nc2noc3ccccc23)c1 [Example 31, N-(3-fluorophenyl)benzo[d]isoxazol-3-amine] | 4090 nM
22 | COc1ccc(Nc2noc3ccccc23)cc1Cl [Example 33, N-(3-chloro-4-methoxyphenyl)benzo[d]isoxazol-3-amine] | 7030 nM
